Results from US20220340764A1, “HYDROPHOBIC AND OLEOPHOBIC SURFACES AND USES THEREOF” (Technion Research & Development Foundation Limited, priority 2012, published 2022).
One block for each compound: values may come before it.

How the values were obtained:
[1] = Static contact angle (wettability) of wax-coated surfaces, Attension Theta tensiometer; type: physicochemical; design: C.A. Cyclohexane / C.A. hexadecane / C.A. Water / C.A. Glycerol / C.A. Ethylene Glycol / C.A. Benzyl Chloride / C.A. Clorobenzene: unit not given here; conditions: for C.A. Ethylene Glycol: liquid Ethylene Glycol; for C.A. Glycerol: liquid Glycerol; for C.A. Water: liquid Water; for C.A. Benzyl Chloride: liquid Benzyl Chloride; for C.A. Clorobenzene: liquid Clorobenzene; for C.A. Cyclohexane: liquid Cyclohexane; for C.A. hexadecane: liquid hexadecane
Source text: Typically, but not exclusively, in order to measure the static contact angle, a drop of liquid is formed on the tip of a hypodermic needle attached to a screw syringe. The syringe is fastened to a stand which reduces any irregularities that are produced by manual drop deposition. The substrate is then raised until it touches the drop using the Y control of the stage. The drop is the then brought into the field of view and onto the focal point of the microscope by x-y translation of the stage and image is captured. The static contact angle is calculated by methods known in the art. An exemplary methodology and system for measuring a static contact angle in described in Example s in the Examples section that follows.
The wettability of the surfaces was characterized using water contact angle (C.A.) measurements recorded with an Attension Theta tensiometer. The water wettability measurements were performed with a constant high-purity water drop volume of 7 μL.
Oil contact angles were determined for the following liquids: Glycerol, ethylene glycol, olive oil, benzyl chloride, clorobenzene, cyclohexane and hexadecane, using an Attension Theta tensiometer with approximately 8 μL liquid drops.
Time-dependent contact angle measurements were performed during a period of two weeks.
(§1) Contact angles and RMS roughness were measured as described in Example 2 hereinabove.

[2] = RMS roughness of wax-coated surfaces by confocal microscopy; type: physicochemical; conditions: for Roughness (RMS): spray coated on Si wafer, 5 seconds×4 cycles, wax solution; for RMS roughness growth: thermally-evaporated on silicon substrate
Description: RMS roughness (Rq) is typically calculated according to the following formula: […]
Confocal microscopy (Leica DCM3D) was used for roughness measurements. Time-dependent measurements were performed on counterpart samples having non-fluorinated wax coatings that were used for XRD time-dependent measurements. In situ time-resolved confocal microscopy was used for observation of the change in surface roughness over a constant 100 μm×100 μm area for duration of 160 hours. A topographical image was collected every hour. These experiments encompassed the same duration and time intervals as the time-dependent XRD measurements hereinabove.
Similar time-dependent measurements were performed for samples coated with fluorinated wax, maintained at a temperature of 90° C., during 60 hours. These experiments were supported by time-dependent XRD measurements performed at 90° C. during 60 hours, with 1 hour time intervals.
as §1

B. cereus 407 biofilms = test: Biofilm formation on wax-coated glass substrates, LIVE/DEAD staining, CLSM; type: cell-based, Bacillus cereus; conditions: glass substrate with thermally evaporated wax, in comparison to control glass surface; FIGS. 7A-7E
Description: Bacillus cereus 407 and ATCC 10987 stains were obtained from Michel Gohar's lab collection (INRA, France).
(§2) For biofilm generation, bacteria were grown to stationary phase in LB (Lysogeny broth) medium at 37° C. in shaking culture. The generated cultures were seeded (by dilution 1:100) into sterile polystyrene multidishes containing different substrates and inoculated into fresh media (37° C., 5 95% air/5% CO2 (v/v) statically without agitation.
(§3) To visualize the constructed biofilms, the substrates were removed from the wells, washed with PBS buffer and stained with FilmTracer™ LIVE/DEAD Biofilm Viability Kit (Molecular Probes, OR) according to the manufacturer's protocol. The stained samples were observed using an Olympus IX81 confocal laser scanning microscope (CLSM, Japan). Live cells were stained green, while dead cells were stained red. Fluorescence emission of the stained samples was measured using an Olympus IX81 CLSM equipped with 488-nm argon-ion and 543-nm helium-neon lasers.
(§4) Two different biofilm forming pathogenic bacteria, B. cereus (Gram positive) and P. aeruginosa (Gram negative), which are often encountered in clinical and industrial settings, were tested for their ability to form biofilm on glass substrates having thermally evaporated thereon the following wax materials: C24F50, C36H74, C40H82 and C44H90.

P. aeruginosa biofilm = test: as above; type: cell-based, Pseudomonas aeruginosa PA14; conditions: glass substrate with thermally evaporated wax; FIGS. 8A-E
Description: Pseudomonas aeruginosa PA14 was obtained from Shlomo Sela's lab strain collection (Agricultural Research Organization, Israel).
as §2, §3, §4

[3] = spray coated on Si wafer, 5 seconds×4 cycles, wax solution
[4] = thermally-evaporated wax on Silicon substrate
[5] = thermally evaporated on silicon wafer, maintained at 90° C., 18 hr
[6] = thermally evaporated on silicon wafer, maintained at 90° C., 20 hr
[7] = thermally evaporated on silicon wafer, maintained at 90° C., 22 hr
[8] = thermally evaporated on silicon wafer, maintained at 90° C., 30 hr
[9] = thermally evaporated on silicon wafer, maintained at 90° C., 40 hr
[10] = thermally evaporated on silicon wafer, maintained at 90° C., 50 hr
[11] = thermally evaporated on silicon wafer, maintained at 90° C., 60 hr

Compound: FC(F)(F)C(F)(F)C(F)(F)C(F)(F)C(F)(F)C(F)(F)C(F)(F)C(F)(F)C(F)(F)C(F)(F)C(F)(F)C(F)(F)C(F)(F)C(F)(F)C(F)(F)F [C15, perfluoropentadecane]
- C.A. Ethylene Glycol [1, 3]: 59
- C.A. Glycerol [1, 3]: 110
- C.A. Water [1, 3]: 114
- Roughness (RMS) [2]: 0.12 μm

Compound: FC(F)(F)C(F)(F)C(F)(F)C(F)(F)C(F)(F)C(F)(F)C(F)(F)C(F)(F)C(F)(F)C(F)(F)C(F)(F)C(F)(F)C(F)(F)C(F)(F)C(F)(F)C(F)(F)C(F)(F)C(F)(F)C(F)(F)C(F)(F)F [C20, perfluoroeicosane, reference compound]
- C.A. Benzyl Chloride [1, 4]: Fully wetted
- C.A. Clorobenzene [1, 4]: Fully wetted
- C.A. Cyclohexane [1, 4]: Fully wetted
- C.A. Ethylene Glycol [1, 4]: 122
- C.A. Glycerol [1, 4]: 120
- C.A. Water [1, 4]: 128
- C.A. hexadecane [1, 4]: Fully wetted

Compound: FC(F)(F)C(F)(F)C(F)(F)C(F)(F)C(F)(F)C(F)(F)C(F)(F)C(F)(F)C(F)(F)C(F)(F)C(F)(F)C(F)(F)C(F)(F)C(F)(F)C(F)(F)C(F)(F)C(F)(F)C(F)(F)C(F)(F)C(F)(F)C(F)(F)C(F)(F)C(F)(F)C(F)(F)F [C24, perfluorotetracosane]
- C.A. Ethylene Glycol [1, 3]: 100
- C.A. Glycerol [1, 3]: 140
- C.A. Water [1, 3]: 141
- C.A. Ethylene Glycol 18 hr [1, 5]: 167
- C.A. Glycerol 18 hr [1, 5]: 163
- C.A. Hexadecane 18 hr [1, 5]: 122
- C.A. Water 18 hr [1, 5]: 160
- C.A. Ethylene Glycol 20 hr [1, 6]: 159
- C.A. Glycerol 20 hr [1, 6]: 164
- C.A. Hexadecane 20 hr [1, 6]: 115
- C.A. Water 20 hr [1, 6]: 165
- C.A. Ethylene Glycol 22 hr [1, 7]: 155
- C.A. Glycerol 22 hr [1, 7]: 165
- C.A. Hexadecane 22 hr [1, 7]: 118
- C.A. Water 22 hr [1, 7]: 161
- C.A. Ethylene Glycol 30 hr [1, 8]: 160
- C.A. Glycerol 30 hr [1, 8]: 167
- C.A. Hexadecane 30 hr [1, 8]: 119
- C.A. Water 30 hr [1, 8]: 168
- C.A. Ethylene Glycol 40 hr [1, 9]: 156
- C.A. Glycerol 40 hr [1, 9]: 167
- C.A. Hexadecane 40 hr [1, 9]: 124
- C.A. Water 40 hr [1, 9]: 168
- C.A. Ethylene Glycol 50 hr [1, 10]: 161
- C.A. Glycerol 50 hr [1, 10]: 163
- C.A. Hexadecane 50 hr [1, 10]: 123
- C.A. Water 50 hr [1, 10]: 163
- C.A. Ethylene Glycol 60 hr [1, 11]: 166
- C.A. Glycerol 60 hr [1, 11]: 166
- C.A. Hexadecane 60 hr [1, 11]: 117
- C.A. Water 60 hr [1, 11]: 167
- time-dependent contact angle of water, glycerol, ethylene glycol and hexadecane ([1]; thermally evaporated on silicon wafer, room temperature, two-week period): slight variation of the measured contact angles
- contact angle of olive oil drop ([1]; thermally-evaporated on silicon substrate, FIG. 3A insert): high contact angle
- C.A. Benzyl Chloride [1, 4]: 139
- C.A. Clorobenzene [1, 4]: 138
- C.A. Cyclohexane [1, 4]: 112
- C.A. Ethylene Glycol [1, 4]: 171
- C.A. Glycerol [1, 4]: 172
- C.A. Water [1, 4]: 172
- C.A. hexadecane [1, 4]: 112
- Roughness (RMS) [2]: 0.12 μm
- surface roughness (R.M.S.) ([2]; thermally-evaporated fluorinated wax, at 90° C. after a 60 hour time period): 0.9 μm
- surface roughness (R.M.S.), initial ([2]; thermally-evaporated fluorinated wax, before maintaining at 90° C.): 0.7 μm
- RMS roughness growth ([2]; 20 hours at 70° C.): about 0.06 μm
- RMS roughness growth ([2]; 20 hours at 80° C.): about 0.08 μm
- RMS roughness growth ([2]; maintained at 90° C.): about 0.4 μm
- B. cereus biofilm formation on coated substrate (B. cereus 407 biofilms): could not adhere successfully to form confluent biofilms
- P. aeruginosa biofilm formation on coated substrate (P. aeruginosa biofilm): substantially prevented the biofilm formation

Compound: CCCCCCCCCCCCCCCCCCCCCCCCCCCCCCCCCCCC [C36, hexatriacontane]
- C.A. Ethylene Glycol [1, 3]: 58
- C.A. Glycerol [1, 3]: 64
- C.A. Water [1, 3]: 75
- contact angle of a water drop ([1]; thermally-evaporated on gold surface, maintained at room temperature for a week): 165 °
- C.A. Benzyl Chloride [1, 4]: Fully wetted
- C.A. Clorobenzene [1, 4]: Fully wetted
- C.A. Cyclohexane [1, 4]: Fully wetted
- C.A. Ethylene Glycol [1, 4]: 121
- C.A. Glycerol [1, 4]: 133
- C.A. Water [1, 4]: 171
- C.A. hexadecane [1, 4]: Fully wetted
- Roughness (RMS) [2]: 0.07-0.1 μm
- B. cereus biofilm formation on coated substrate (B. cereus 407 biofilms): Less significant inhibition of biofilm formation

Compound: CCCCCCCCCCCCCCCCCCCCCCCCCCCCCCCCCCCCCCCC [C40, tetracontane]
- C.A. Ethylene Glycol [1, 3]: 62
- C.A. Glycerol [1, 3]: 69
- C.A. Water [1, 3]: 85
- C.A. Benzyl Chloride [1, 4]: Fully wetted
- C.A. Clorobenzene [1, 4]: Fully wetted
- C.A. Cyclohexane [1, 4]: Fully wetted
- C.A. Ethylene Glycol [1, 4]: 112
- C.A. Glycerol [1, 4]: 144
- C.A. Water [1, 4]: 167
- C.A. hexadecane [1, 4]: Fully wetted
- Roughness (RMS) [2]: 0.06-0.09 μm
- B. cereus biofilm formation on coated substrate (B. cereus 407 biofilms): could not adhere successfully to form confluent biofilms

Continued, in another order:

- C.A. Ethylene Glycol [1, 3]: 60
- C.A. Glycerol [1, 3]: 96
- C.A. Water [1, 3]: 96
- C.A. Benzyl Chloride [1, 4]: Fully wetted
- C.A. Clorobenzene [1, 4]: Fully wetted
- C.A. Cyclohexane [1, 4]: Fully wetted
- C.A. Ethylene Glycol [1, 4]: 103
- C.A. Glycerol [1, 4]: 130
- C.A. Water [1, 4]: 161
- C.A. hexadecane [1, 4]: Fully wetted
Compound: CCCCCCCCCCCCCCCCCCCCCCCCCCCCCCCCCCCCCCCCCCCC [C44, tetratetracontane]
- B. cereus biofilm formation on coated substrate (B. cereus 407 biofilms): could not adhere successfully to form confluent biofilms
- P. aeruginosa biofilm formation on coated substrate (P. aeruginosa biofilm): substantially prevented the biofilm formation

- C.A. Benzyl Chloride [1, 4]: Fully wetted
- C.A. Clorobenzene [1, 4]: Fully wetted
- C.A. Cyclohexane [1, 4]: Fully wetted
- C.A. Ethylene Glycol [1, 4]: 100
- C.A. Glycerol [1, 4]: 111
- C.A. Water [1, 4]: 151
- C.A. hexadecane [1, 4]: Fully wetted
Compound: CCCCCCCCCCCCCCCCCCCCCCCCCCCCCCCCCCCCCCCCCCCCCCCCCC [C50, pentacontane]
